Assays:
[1] = biological target: T1, Melanin-concentrating hormone receptor 1 (Homo sapiens, UniProt Q99705); test: Inhibitory activity towards melanin-concentrating hormone receptor 1 in IMR32 cells; format: cell-based, IMR-32
[2] = biological target: T1, Melanin-concentrating hormone receptor 1; test: Inhibitory concentration against MCH1R IMR32 cells in FLIPR-based assay; format: cell-based, IMR-32
[3] = Brain Cmax in DIO mice after 10 mg/kg oral dose; format: ADME, organism-based; design: dose 10 mg/kg, route oral; conditions: mouse
[4] = Plasma area under curve in DIO mice after 10 mg/kg oral dose; format: ADME, organism-based; design: dose 10 mg/kg, route oral; conditions: mouse, in vivo
[5] = Plasma peak concentration in DIO mice after 10 mg/kg oral dose; format: ADME, organism-based; design: dose 10 mg/kg, route oral; conditions: mouse
[6] = Brain half life in DIO mice after 10 mg/kg oral dose; format: ADME, organism-based; design: dose 10 mg/kg, route oral; conditions: mouse
[7] = Plasma half life in DIO mice after 10 mg/kg oral dose; format: ADME, organism-based; design: dose 10 mg/kg, route oral; conditions: mouse
[8] = Brain/plasma area under curve in DIO mice after 10 mg/kg oral dose; format: ADME, organism-based; design: dose 10 mg/kg, route oral; conditions: mouse, read-out: AUC
[9] = Area under the curve in brain of DIO mice after 10 mg/kg oral dose; format: ADME, organism-based; design: dose 10 mg/kg, route oral; conditions: mouse, in vivo
[10] = Area under the curve in plasma of DIO mice after 10 mg/kg oral dose; format: ADME, organism-based; design: dose 10 mg/kg, route oral; conditions: mouse, in vivo
[11] = Plasma Cmax in DIO mice after 10 mg/kg oral dose; format: ADME, organism-based; design: dose 10 mg/kg, route oral; conditions: mouse
[12] = Brain/plasma in DIO mice after 10 mg/kg oral dose; format: ADME, organism-based; design: dose 10 mg/kg, route oral; conditions: mouse, read-out: AUC

T1 sequence (Q99705 whole entry): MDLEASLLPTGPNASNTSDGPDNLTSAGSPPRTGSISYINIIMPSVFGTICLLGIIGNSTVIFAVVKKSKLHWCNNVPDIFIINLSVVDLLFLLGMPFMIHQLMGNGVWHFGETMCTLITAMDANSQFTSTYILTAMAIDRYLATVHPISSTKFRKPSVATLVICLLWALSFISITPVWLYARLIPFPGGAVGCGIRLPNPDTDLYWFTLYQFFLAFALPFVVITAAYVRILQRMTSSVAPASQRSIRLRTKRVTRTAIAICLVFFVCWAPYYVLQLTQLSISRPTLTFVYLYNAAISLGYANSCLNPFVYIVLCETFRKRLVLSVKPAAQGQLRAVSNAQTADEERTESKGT

Structure (SMILES)	IC50 [1] [µM]	IC50 [2] [µM]	further results
COc1ccc(NCc2c[nH]cn2)c(C(=O)NC2CCN(Cc3ccc4c(c3)OCO4)CC2)c1	0.02	0.05	
O=C(NC1CCN(Cc2ccc3ncccc3c2)CC1)c1cc(Cl)ccc1NCc1nccs1	0.02	0.03	
COc1ccc(NC(=O)NC(C)C)c(C(=O)NC2CCN(Cc3ccc(Cl)cc3)CC2)c1	0.22		
O=C(NC1CCN(Cc2ccc3c(c2)OCO3)CC1)c1cc(Cl)cnc1NCc1cnc[nH]1	0.009	0.02	
CS(=O)(=O)Nc1ccc(Cl)cc1C(=O)NC1CCN(Cc2ccc3c(c2)OCO3)CC1	0.56		
O=C(NC1CCN(Cc2ccc3c(c2)OCO3)CC1)c1cc(Cl)ccc1NCc1nccs1	0.002	0.016	Cmax [3]: 814 ng/mL; AUC [4]: 4100 ng·h/mL; Cmax [5]: 2030 ng/mL; half-life [6]: 7.8 h; half-life [7]: 3.8 h; Kp [8]: 0.7
O=C(NC1CCN(Cc2ccc3c(c2)OCO3)CC1)c1cc(Cl)cnc1NC[C@H]1CCCO1	0.05	0.02	
O=C(NC1CCN(Cc2ccc3c(c2)OCO3)CC1)c1cccc(Cl)c1	0.11		
O=C(NC1CCN(Cc2ccc(Cl)cc2)CC1)c1cc(Cl)cnc1NC1CCC1	1.98		
O=C(NC1CCN(Cc2ccc3c(c2)OCO3)CC1)c1cc(Cl)cnc1NCc1nccs1	0.006	0.009	
COc1ccc(NCc2cncnc2)c(C(=O)NC2CCN(Cc3ccc4c(c3)OCO4)CC2)c1	0.009	0.07	
COc1ccc(NCC2CC2)c(C(=O)NC2CCN(Cc3ccc4c(c3)OCO4)CC2)c1	0.01	0.09	
O=C(NC1CCN(Cc2ccc(Cl)cc2)CC1)c1cc(Cl)cnc1NCC1CC1	0.41		
CNc1ccc(Cl)cc1C(=O)NC1CCN(Cc2ccc3c(c2)OCO3)CC1	0.68		
CC(=O)c1ccc(CN2CCC(NC(=O)c3cc(Cl)ccc3NCc3c[nH]cn3)CC2)cc1	0.01	0.24	
COc1ccc(NCc2ncc[nH]2)c(C(=O)NC2CCN(Cc3ccc4c(c3)OCO4)CC2)c1	0.07	0.22	
O=C(NC1CCN(Cc2ccc3c(c2)OCO3)CC1)c1cc(Cl)cnc1NCc1ncc[nH]1	0.02	0.07	
COc1ccc(CN2CCC(NC(=O)c3cc(Cl)cnc3NCC(C)C)CC2)cc1F	0.16		
Nc1ccc(Cl)cc1C(=O)NC1CCN(Cc2ccc3c(c2)OCO3)CC1	0.009	0.2	
CC(C)Nc1ncc(Cl)cc1C(=O)NC1CCN(Cc2ccc3c(c2)CCO3)CC1	0.07	0.07	
COc1ccc(NCc2c[nH]cn2)c(C(=O)NC2CCN(Cc3ccc4ccccc4c3)CC2)c1	0.39	1.94	
COc1ccc(NS(C)(=O)=O)c(C(=O)NC2CCN(Cc3ccc(Cl)cc3)CC2)c1	0.16		
CC(C)OCCNc1ncc(-c2cccs2)cc1C(=O)NC1CCN(Cc2ccc3c(c2)OCO3)CC1	0.19		
CC(C)OCCNc1ncc(Cl)cc1C(=O)NC1CCN(Cc2ccc3c(c2)OCO3)CC1	0.01	0.02	AUC [9]: 570 ng·h/mL; AUC [10]: 677 ng·h/mL; Cmax [3]: 276 ng/mL; Cmax [11]: 283 ng/mL; half-life [6]: 1.4 h; Kp [12]: 0.84; half-life [7]: 2.3 h
O=C(Nc1ccc(Cl)cc1C(=O)NC1CCN(Cc2ccc3c(c2)OCO3)CC1)c1ccccn1	0.02	0.37	
COc1ccc(CNc2ncc(Cl)cc2C(=O)NC2CCN(Cc3ccccc3)CC2)cc1	0.01	0.03	
COc1ccc(NCc2ccccn2)c(C(=O)NC2CCN(Cc3ccc4c(c3)OCO4)CC2)c1	0.02	0.07	
COc1ccc(NCC2CCCCC2)c(C(=O)NC2CCN(Cc3ccc4c(c3)OCO4)CC2)c1	0.05	1.06	
CC(C)OCCNc1ncc(-c2ccncc2)cc1C(=O)NC1CCN(Cc2ccc3c(c2)OCO3)CC1	0.14		
O=C(NC1CCN(Cc2ccc3c(c2)OCO3)CC1)c1cc(Cl)cnc1NCc1cscn1	0.004	0.008	

More lines, main results first:

IC50 [1] [µM]	IC50 [2] [µM]	Structure (SMILES)	further results
2.01		O=C(NC1CCN(Cc2ccc3c(c2)OCO3)CC1)c1cc(Cl)cnc1Cl	
0.07	0.03	O=C(NC1CCN(Cc2ccc3c(c2)OCO3)CC1)c1cc(Cl)cnc1NC1CCC1	
0.02	0.04	COc1ccc(NCC2CCOC2)c(C(=O)NC2CCN(Cc3ccc4c(c3)OCO4)CC2)c1 (stereo not drawn)	
0.006	0.04	O=C(NC1CCN(Cc2ccc3ccccc3c2)CC1)c1cc(Cl)ccc1NCc1nccs1	
0.09	0.1	COc1ccc(NCc2cncn2C)c(C(=O)NC2CCN(Cc3ccc4c(c3)OCO4)CC2)c1	
0.41		O=C(NC1CCN(Cc2ccc3c(c2)OCO3)CC1)c1ccccc1NCc1c[nH]cn1	
0.06	1.22	O=C(NC1CCN(Cc2ccc(Cl)cc2)CC1)c1cc(Cl)cnc1NCc1ccco1	
0.26		COc1ccc(NS(C)(=O)=O)c(C(=O)NC2CCN(Cc3ccc4c(c3)OCO4)CC2)c1	
0.007	0.06	CC(C)OCCCNc1ncc(Cl)cc1C(=O)NC1CCN(Cc2ccc3c(c2)OCO3)CC1	
0.02	0.05	CC(C)CNc1ncc(Cl)cc1C(=O)NC1CCN(Cc2ccc3c(c2)OCO3)CC1	
0.02	0.02	O=C(NC1CCN(Cc2ccc3c(c2)OCO3)CC1)c1cc(Cl)cnc1NCC1CC1	
0.07	0.1	COc1ccc(NCc2c[nH]cn2)c(C(=O)NC2CCN(Cc3ccc4ncccc4c3)CC2)c1	
0.02	0.03	CC(C)Nc1ncc(Cl)cc1C(=O)NC1CCN(Cc2ccc3c(c2)OCO3)CC1	
0.08	0.51	O=C(NC1CCN(Cc2ccc3c(c2)OCO3)CC1)c1cc(Cl)ccc1O	
